Reference: patent publication US20220257974A1, “PHOTOBIOMODULATION METHOD AND SYSTEM FOR INDUCING ACTIVITY OF BRAINDERIVED NERVE GROWTH FACTOR IN HIPPOCAMPAL TISSUE” (INDUSTRY ACADEMIC COOPERATION FOUNDATION KEIMYUNG UNIVERSITY, priority 2019, published 2022)

What was measured:
HT-22 cells = assay: MTT analysis of cell survival under H2O2-induced oxidative stress; type: cell-based; settings: without LED light
Procedure: The protection against apoptosis was analyzed using CCK-8 kit (Dojindo, Gaithersburg, Md.) and MTT as follows: HT-22 cells (5×10^5/ml) were plated on a 96-well plate and cultured in 100 µL of DMEM medium for 24 hours. Various concentrations of H2O2 were added to the cells, and the cells were cultured for 24 hours with LED irradiation of 660 nm. Then, 10 µL of MTT solution (5 mg/ml MTT in PBS) was added to each well and cultured at 37° C. for 2 hours. Absorbance was measured at 450 nm and 564 nm with a Victor multi label counter (Wallac, Turku, Finland).
The hippocampus HT-22 cell line was used to evaluate the effect of H2O2-induced oxidative stress on cell survival and apoptosis inhibitory effect by 660 nm of LED light (FIG. 2). […] In contrast, treatment with 660 nm of LED light increased cell survival rates to 88.4, 66.2, and 22.0%, respectively.

BDNF [1] = assay: RT-PCR of BDNF expression in HT-22 cell; type: cell-based; settings: H2O2 treatment
Excerpt: The used […] BDNF, forward [NT], and reverse [NT]; glutathione peroxidase (GPx), forward [NT], and reverse [NT]; superoxide dismutasee 1 (SOD1), forward [NT], and reverse [NT]; glutathione reductase (GR), forward [NT], and reverse [NT]; and h-GAPDH transfer [NT], reverse [NT]. All experiments were implemented three times.

p-ERK and p-CREB = assay: Western blot analysis of ERK and CREB phosphorylation in HT-22 cells; type: cell-based; settings: H2O2 treatment
Procedure: The level of protein expression was evaluated by Western blot analysis. Cells were dissolved and centrifuged at 16,000 g. Then, the supernatant was electrophoresed at 12% SDA-PAGE and transferred to a nitrocellulose membrane. After blocking with 5% skim milk among Tween (0.05%)/PBS for 1 hour, the membrane was detected with primary antibody and a horseradish peroxidase (HRP)-conjugated antibody. The immunoreactive band was visualized using West Femto Chemi-luminescent substrate (Thermo). Protein levels were standardized with -actin expression using ChemiDOC XRS+ (Bio-Rad, Hercules, Calif., USA).

BDNF [2] = settings: PTSD-induced mice; cited from earlier work

| Structure (SMILES) | cell survival rate (HT-22 cells; H2O2 100M) | cell survival rate (HT-22 cells; H2O2 300M) | cell survival rate (HT-22 cells; H2O2 1000M) | BDNF expression (BDNF [1]) | p-ERK and p-CREB levels (p-ERK and p-CREB) | expression of BDNF and exercise ability (BDNF [2]) |
| --- | --- | --- | --- | --- | --- | --- |
| OO [H2O2] | 72.7% | 57.3% | 20.7% | reduced BDNF expression | increased p-ERK and p-CREB levels |  |
| CNCCC(Oc1ccc(C(F)(F)F)cc1)c1ccccc1 (stereo not drawn) [fluoxetine] |  |  |  |  |  | improved |
